How the values were obtained:
Format in all cases: in vivo, rat
[1] = system: Male Sprague-Dawley rats; test: Rapid Insulin Sensitivity Test (RIST); conditions: for RIST index: TAA rats (TAA 200 mg.kg-1 i.p. 24 h before), control RIST, treatments i.p. 1 h post TAA; for RIST index post atropine: TAA rats, second RIST after atropine 0.1 mg.kg-1 i.v. (HISS-independent component)
Procedure: Surgical Preparation. Male Sprague-Dawley rats weighing 260-300 g from the University of Manitoba colony were maintained in the animal house under controlled conditions (22±1° C., 12 h light/12 h dark cycle). They were fed a standard rat chow diet with free access to water. All rats underwent a fasting period of 8 h and a refeeding phase of 2 h immediately before the start of surgical preparation. As HISS is only released in the fed state, the fasting-refeeding protocol assured a high level of HISS release in response to insulin. The rats were anaesthetized with an intraperitoneal injection of sodium pentobarbital (65 mg kg-1; Somnotol, MTC Pharmaceuticals, Ont). Maintained anesthesia was achieved throughout the experiment by a continuous infusion of pentobarbital sodium (0.5 mg.ml-1 saline given at 50 μl.min-1) through a cannula in the jugular vein, supplemented with a 0.65 mg (0.01 ml) bolus injection when required. The rats were placed on a temperature-controlled surgical table (Harvard Apparatus, Kent, England) and rectal temperature was monitored and held at 37-37.5° C. Spontaneous respiration was allowed through a tracheal tube.
An arterial-venous shunt was established, as previous described (Lautt W W et al. Can J Physiol Pharmacol. 1998; 76(12): 1080-6.), for monitoring mean arterial blood pressure (MAP), blood glucose level and for drug delivery. Briefly, two catheters (polyethylene tubing PE60), one inserted into the right femoral artery and the other into the right femoral vein, were connected to the two openings of a three way vascular circuit consisting of a T tube connected with silicon tubing. The third opening of the circuit was connected to a pressure transducer for the recording of the shunt pressure which, when the silicon tubing toward the venous side of the circuit was closed by clamping, represented the systemic arterial blood pressure. Blood samples were taken from the arterial side of the shunt for the glucose measurement. Flowing blood within the shunt assures the real time measurement of the blood glucose concentration, which is essential for the euglycemic clamp test as mentioned below. An infusion line was inserted into the venous side of the loop for drug delivery. Another infusion line connected to the jugular vein was established for glucose infusion. Animals were heparinized (100 IU.kg-1) to prevent clotting in the vascular loop.
Rapid Insulin Sensitivity Test (RIST). The RIST was performed as previously described (Lautt W W et al. Can J Physiol Pharmacol. 1998; 76(12): 1080-6.). Briefly, following completion of surgery, animals were allowed a 30-min stabilization period. The baseline glucose levels were then determined by samples taken at 5-min intervals and continued until three successive stable determinations were made. The mean of these three data points is regarded as the baseline for the RIST. To perform the RIST, human insulin (50mU.kg-1 in 0.5 ml saline) was infused into the femoral vein at the rate of 0.1 ml.min-1 for 5-min. After 1-min of insulin infusion, the first test glucose sample was determined and a variable glucose infusion (10%) was initiated. Blood samples were taken every 2-min and the glucose infusion rate was adjusted accordingly to maintain euglycemia. The RIST index is the amount of glucose (mg.kg-1) infused, to maintain euglycemia, over the test period that terminated when no further glucose infusion was required (approximately 30 min). At the end of a RIST, the animal is at its pretest glycemic level.
(§1) Animal groups. Six groups of animals were established under the following treatments: (1): Normal control rats, treated with saline and corn oil injection at the dose of 2 and 1 ml.kg-1, respectively, n=12. (2): Normal rats, treated with Vitamin C, Vitamin E and SAMe, n=8. The dose for Vitamin C and Vitamin E were 100 and 200 mg.kg-1, respectively; for SAMe was 25 mg.kg-1. […]

[2] = system: Male Sprague-Dawley rats; test: Hepatic enzymes analysis (serum ALT and AST); conditions: TAA rats; effect on TAA-induced increases
Procedure: as §1, with “mg.kg-1. (3): Thioacetaminde (TAA) rats, given with intraperitoneal injection of TAA at the dose of 200 mg.kg-1, n=9. (4): TAA rats treated with Vitamin C+Vitamin E, n=11. (5): TAA rats with SAMe treatment, n=7. (6): TAA rats treated with Vitamin C+Vitamin E+SAMe, n=8. All compounds were administered by intraperitoneal injection (i. p.).” for “mg.kg-1.”
Protocol. […] Following the establishment of glucose baseline, the first RIST index was determined and this was regarded as the control RIST. […] The percentage contribution of HISS-dependent component to total insulin sensitivity was calculated as: % HISS=(RIST index in control−RIST index after atropine)/RIST index in control. […]
Hepatic enzymes analysis. Serum samples from rats in groups 1 to 6 were analyzed for alanine aminotransferase (ALT) and aspartate aminotransferase (AST) activities spectrophotometrically utilizing an Abbott analyzer and Diagnostic Chemicals Limited assay reagents (Charlottetown, P.E.I, Canada).

[3] = system: Male Sprague-Dawley rats; test: Liver histopathological examination; conditions: TAA rats; for Bridging Necrosis / Necrosis: score 0-3; for Inflammation: score 0-3 (normal-0, mild-1, moderate-2, severe-3), mean of 5 fields
Procedure: Six groups of animals were established under the following treatments: (1): Normal control rats, treated with saline and corn oil injection at the dose of 2 and 1 ml.kg-1, respectively, n=12. (2): Normal rats, treated with Vitamin C, Vitamin E and SAMe, n=8. The dose for Vitamin C and Vitamin E were 100 and 200 mg.kg-1, respectively; for SAMe was 25 mg.kg-1. (3): Thioacetaminde (TAA) rats, given with intraperitoneal injection of TAA at the dose of 200 mg.kg-1, n=9. (4): TAA rats treated with Vitamin C+Vitamin E, n=11. (5): TAA rats with SAMe treatment, n=7. (6): TAA rats treated with Vitamin C+Vitamin E+SAMe, n=8. All compounds were administered by intraperitoneal injection (i. p.). TAA was administered 24 h before the start of surgery, and all treatment with vitamins and SAMe were given 1 h post TAA administration.
The left liver lobe was excised and embedded in paraffin, sliced 7 μm in thickness, and stained with hematoxylin-eosin. The tissue slices were then analyzed with light microscopy. Histopathological analysis of the injured area was performed with a computerized video-imaging system (Image-Pro Plus. Media Cybernetics, Md., USA) by a pathologist (Y.F.) who was not aware of sample assignment to experimental group. The degree of injury, including inflammation, necrosis and bridging necrosis, was expressed as the mean of 5 different fields for each slide scaled as 0-3: normal-0, mild-1, moderate-2 and severe-3.

| Compound | inhibition at 0.1 mg/kg ([1]; Rattus norvegicus, read-out: inhibition of insulin sensitivity) [%] | RIST index after atropine ([1]; normal rats, atropine 0.1 mg.kg^−1) [mg/kg] | RIST index [1] [mg/kg] | RIST index post atropine [1] [mg/kg] | Serum ALT and AST activities [2] | histological injury of liver [3] | Bridging Necrosis [3] | Necrosis [3] | Inflammation [3] |
| --- | --- | --- | --- | --- | --- | --- | --- | --- | --- |
| CN1[C@@H]2CC[C@H]1C[C@@H](OC(=O)C(CO)c1ccccc1)C2 (stereo partly shown) [Atropine, atropine] | 50 ± 2.1 | 82.7 ± 3.2 |  |  |  |  |  |  |  |
| C[S+](CC[C@H](N)C(=O)O)C[C@H]1O[C@@H](n2cnc3c(N)ncnc32)[C@H](O)[C@@H]1O (stereo partly shown) [SAMe, S-adenosylmethionine] |  |  | 88.0 ± 4.1 | 72.1 ± 3.5 | did not prevent | slight reduction in histological injury | 0.09 ± 0.09 | 1.79 ± 0.15 # | 0.93 ± 0.13 |
| CC(=N)S [TAA, thioacetamide] |  |  | 75.5 ± 2.8 | 69.0 ± 2.1 | significant increase | massive hepatocytic necrosis | 1.17 ± 0.36 | 2.33 ± 0.17 | 1.50 ± 0.22 |
